Legend:
NCI-H295R = assay: area under concentration-response curve (viability) (AUC (a.u.)); higher = less active; details: 48 h
Summary of the method: (§1)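 Library compounds were dispensed at 11 concentrations (23 nL each) onto three adrenocortical carcinoma cell lines in 1,536-well plates. Luminescence was recorded after 48 h using CellTiter-Glo, and signals were normalised per plate to vehicle and empty-well controls. Fitted concentration-response curves of inhibitory or non-responding classes only supplied the AC50 and area under the curve.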

CU-ACC1 = assay: as above; details: 48 h
Summary of the method: as §1

Compound	area under concentration-response curve (NCI-H295R)	area under concentration-response curve (CU-ACC1)
N[C@H](CSC(c1ccccc1)(c1ccccc1)c1ccccc1)C(=O)O	564	529
COC1=C(OC)C=C2C(=CC=NC2=C1)OC3=CC=C(NC(=O)\C4=C\N(C(C)C)C(=O)N(C4=O)C5=CC=C(F)C=C5)C=C3F	460	489
Cc1ccccc1C(C(=O)NC1CCCCC1)N(C(=O)CNc1ccc(C#N)cc1)c1cccc(F)c1 (centres undefined)	507	485
O=C(Nc1ccc(F)c(C(F)(F)F)c1)Nc1nnc(-c2ccncc2)s1	464	444
COc1cc(C(=O)O)ccc1NC(=O)[C@@H]1N[C@@H](CC(C)(C)C)[C@](C#N)(c2ccc(Cl)cc2F)[C@H]1c1cccc(Cl)c1F	540	469
O=C(/C=C/c1ccc(O)cc1)c1ccc(O)cc1O	492	465
NC(=O)c1nc(F)cnc1O	553	506
NC(=O)c1cnc2[nH]ccc2c1NC1C2CC3C[C@H]1CC(O)(C3)C2 (some centres undefined)	547	519
NC(=O)c1cc(F)cc2c1C(=O)N(C1CCN(C3CCC(F)(F)CC3)CC1)C2	568	541
CNC(=O)c1ccc2c(c1)NC(=O)/C2=C(\Nc1cccc(CN(C)C)c1)c1ccccc1	441	323
O=C(O)CCc1ccc(NCc2cccc(Oc3ccccc3)c2)cc1	599	546
Cc1nc(N)sc1-c1ccnc(Nc2ccc(N3CCOCC3)cc2)n1	414	400
CONC(=O)Nc1ccc(-c2sc3c(c2CN(C)C)c(=O)n(-c2ccc(OC)nn2)c(=O)n3Cc2c(F)cccc2F)cc1	458	354
c1ccc(-c2oc3ncnc(NC[C@@H]4CCCO4)c3c2-c2ccccc2)cc1	572	517
O=[S+]([O-])(F)Cc1ccccc1	517	510
Cn1cnc([N+](=O)[O-])c1Sc1ncnc2nc[nH]c12	472	427
O=C(Nc1cnn2ccc(N3CCC[C@@H]3c3cc(F)ccc3F)nc12)N1CC[C@H](O)C1	554	534
Cn1ncc(Cl)c1-c1cc(C(=O)N[C@H](CN)Cc2cccc(F)c2)sc1Cl	335	305
CCOC(=O)C1=CCCCC1[S+](=O)([O-])Nc1ccc(F)cc1Cl (centres undefined)	573	517

Compound	area under concentration-response curve (NCI-H295R)	area under concentration-response curve (CU-ACC1)
COC(=O)C[C@](O)(CCCC(C)(C)O)C(=O)O[C@@H]1C(OC)=CC23CCCN2CCc2cc4c(cc2[C@H]13)OCO4 (some centres undefined)	252	149
CCN1\C=C(C(O)=O)/C(=O)C2=C1C=C(N3CCN(C)CC3)C(=C2)F	555	511
CC1=CC(=CC=C1)OC/2=C/NC(=O)/N=C2	566	539
CC(=O)N[C@H]1CSSC[C@@H](C(N)=O)NC(=O)[C@H](C(C)C)NC(=O)[C@H](C)NC(=O)[C@H](Cc2cnc[nH]2)NC1=O	551	501
CN1CCCN(CC1)C2=CC=C3C(=O)\C(=C/4SC5=C(C=CC=C5)N4C3=N2)C(=O)NCC6=CN=C(C)C=N6	554	528
CCn1c(C(=O)N(C2CC2)C2CC2)cc2c3c(ncn3C)c(Nc3cc(C)n(C)n3)nc21	540	422
COc1cccc(OC)c1-c1cc(C(=O)NC2(C(=O)O)C3CC4CC(C3)CC2C4)nn1-c1ccnc2cc(Cl)ccc12 (centres undefined)	569	513
Cc1ccc(-c2ccc3c(ccc4sc5c(c43)NC[C@@H](C)NC5=O)n2)cn1	504	473
COc1cc2ncnc(Oc3cccc(NC(=O)Nc4cc(C(C)(C)C(F)(F)F)on4)c3)c2cc1OC	467	446
Cc1ccc(Nc2cc(-c3cccc(N4C(=O)c5ccccc5C4=O)c3)ncn2)cc1N[S+](C)(=O)[O-]	490	462
CCC(C)(C)C(=O)O[C@H]1C[C@@H](C)\C=C2\C=C/[C@H](C)[C@H](CC[C@@H]3C[C@@H](O)CC(=O)O3)[C@@H]12	565	399
NC\1=N\C(=O)N(\C=C1F)[C@H]2C[C@H](O)[C@@H](CO)O2	416	334
CN(C)CCN1C(=O)c2cccc3cc(NC(N)=O)cc(c23)C1=O	542	521
CNC(=O)c1cc(Oc2ccc(NC(=O)Nc3cc(C(C)(C)C)nn3-c3ccc4ncccc4c3)c(F)c2)ccn1	561	496
O=C(O)c1cc(/N=N/c2ccc(S(=O)(=O)Nc3ccccn3)cc2)ccc1O	522	505
c1cc(OCCN2CCCCC2)cc(-c2n[nH]c3ccc(-c4nc[nH]n4)cc23)c1	563	525
Cn1cc(-c2cnn3c(N)c(Br)c(C4CCCNC4)nc23)cn1 (centres undefined)	557	516
O=[S+]([O-])(CCSSCC[S+](=O)([O-])[O][Na])[O][Na]	544	469
